Data reported in PMC8401132 (Molecules, 2021).
Read-outs that look alike come from different tables or passages of the source.

Key:
[1] = system: K562-200 (K562/Adr200) cells; assay: CellTiter-Glo ATP cell viability/proliferation, K562-200; format: cell-based, human; details: for IC50: K562-200, ATP release, 72 h
Description: (§1) SW1222 were cultured in DMEM (Gibco, New York, NY, USA) media supplemented with 10% fetal bovine serum (FBS) (Gibco, New York, NY, USA) and 1% penicillin/streptomycin (Gibco, USA). Both K562 and K562/Adr200 were cultured in RPMI media (Gibco, New York, NY, USA) supplemented with 10% FBS and 1% penicillin/streptomycin. The seeding density for all the three cell lines was 1000 cells per well in 96 wells plates. […] From this experiment, the effective concentration that inhibited the growth of ≥50% of the cells was determined. […] Both metformin and copper sulfate were prepared in sterile nuclease-free water, then added to the media. The cells were maintained in culture for 72 h before any further assessments were done. […] A control sample of untreated cells was included in all experiments. […] The CellTiter-Glo® luminescent cell viability assay was used to determine levels of ATP release from each cell line after 72 h, according to manufacturer’s instructions.

SW1222 cells [2] = assay: CellTiter-Glo ATP cell viability/proliferation, SW1222; format: cell-based, human
Description: as §1

K562 cells [3] = assay: CellTiter-Glo ATP cell viability/proliferation, K562; format: cell-based, human; details: for Normalized ATP percentage / IC50: 72 h; for IC50: Homo sapiens, K562, 72 h, K562, ATP release
Description: as §1

[4] = system: human gastric cancer AGS cells; details: 20 mM for 12 h ref 56; cited from earlier work
[5] = patients with diabetes, observational study published in 2005 ref 13; cited from earlier work
K562 cells [6] = assay: Actin stress fiber staining, K562; format: cell-based, human; details: K562, 72 h
Description: (§2) To assess the effects on actin stress fiber organization and cell morphology, rhodamine phalloidin was used. Cells were fixed in 4% paraformaldehyde 72 h post-treatment. Cells were permeabilized for 5 min in prechilled 0.5% Triton × 100, 3 mM MgCl2, and 300 mM sucrose, followed by washing with 1× DPBS. A blocking buffer composed of 5% fetal bovine serum (FBS), 0.1% Tween 20, and 0.02% sodium azide was then added to the cells for 30 min. Rhodamine phalloidin was incubated for one hour after removing and discarding the blocking buffer. Cells were subsequently washed with 1× PBS, and DAPI was added for nucleic acid staining prior to fluorescence imaging.

293 cells = details: 10–50 mM for 48 h ref 56; cited from earlier work
[7] = system: embryonic lung HEL 299 cells; details: 10–50 mM for 48 h ref 56; cited from earlier work
[8] = T2DM / diabetic patients ref 57; cited from earlier work
K562-200 cells = assay: Actin stress fiber staining, K562-200; format: cell-based, human; details: K562-200, 72 h
Description: as §2

[9] = set-up: method as in PMID 21168988; details: NMR, literature data ref 39; cited from earlier work
[10] = Cu(II)/metformin complex formation constants by combined potentiometric-Vis titration; format: physicochemical; details: 0.1 M KCl, 25.0 °C, [L] = 4 mM, [Cu^2+] = 2 mM, potentiometry/Vis
Description: Protonation and complex-formation equilibrium studies were carried out under the same conditions described in previous publications. […]. Combined potentiometric–spectrophotometric measurements were performed for protonation equilibria in the 200–400 nm spectral range and in the 400–800 nm spectral range for copper (II) complexes, using 0.2 and 1 cm path lengths, respectively. Protonation and complex formation data were analyzed using the Hyperquad and HypSpec2014 program.

[11] = potentiometry, cited from earlier work
[12] = system: normal colon CCD 841 CoN cells; details: 10–50 mM for 48 h ref 56; cited from earlier work
[13] = potentiometry, cited from earlier work; remark: listed apart in the source
SW1222 cells [14] = assay: Actin stress fiber staining and morphology, SW1222; format: cell-based, human; details: SW1222, 15 mM and 50 mM metformin, 72 h
Description: as §2

O=S(=O)([O-])[O-].[Cu+2] [Cu(II), copper (II) sulfate]
Inhibition of cell proliferation (% of the cells) ([1]; K562-200, 400 µM Cu(II), absence of metformin): ≥ 50%
Effect on cells ([1]; K562-200, 5 mM Cu(II), regardless of metformin concentration): almost all cells died
Inhibition of cell proliferation (% of the cells) (SW1222 cells [2]; SW1222, 400 µM Cu(II), absence of metformin): ≥ 50%
Effect on cells (SW1222 cells [2]; SW1222, 5 mM Cu(II), regardless of metformin concentration): almost all cells died
Inhibition of cell proliferation (% of the cells) (K562 cells [3]; K562, 400 µM Cu(II), absence of metformin): ≥ 50%
Normalized ATP percentage (K562 cells [3]; K562, 400 µM Cu(II), no metformin): 47.2%
Effect on cells (K562 cells [3]; K562, 5 mM Cu(II), regardless of metformin concentration): almost all cells died

CN(C)C(=N)N=C(N)N [metformin, 3-(diaminomethylidene)-1,1-dimethylguanidine]
Effect on cell viability [4]: significantly reduced cell viability
Decrease in cancer risk with metformin use [5]: 23%
Lowest concentration showing loss of actin stress fibers (K562 cells [6]): 1 mM
Effect on viability (293 cells): no significant effect
Effect on viability [7]: no significant effect
Plasma concentration [8]: ~20 µM
Lowest concentration showing loss of actin stress fibers (K562-200 cells): 20 µM
Protonation constant LH [9]: 13.8 [39]
Protonation constant LH2 [9]: 3.1 [39]
Logβ CuL2 [10]: 22.20(7)
Logβ CuL2H [10]: 28.3(1)
Logβ CuLH [10]: 17.87(5)
LogK CuL ([11]; literature data ref 38): 8.59 [38]
LogK CuL2 ([11]; literature data ref 38): 6.35 [38]
LogK CuL ([11]; literature data ref 42): 7.17 [42]
LogK CuL2 ([11]; literature data ref 42): 5.13 [42]
Effect on viability [12]: no significant effect
Protonation constant LH ([13]; literature data ref 37): 11.02 [37]
Protonation constant LH2 ([13]; literature data ref 37): 2.79 [37]
Protonation constant LH ([13]; literature data ref 38): 11.10 [38]
Protonation constant LH2 ([13]; literature data ref 38): 2.90 [38]
IC50 ([1]; Homo sapiens, K562, 72 h): 63.1 µM
IC50 [1]: 63 µM
Cell shrinkage and rounding (SW1222 cells [14]): dramatically increased
IC50 (SW1222 cells [2]; Homo sapiens, SW1222, ATP release, 72 h): 15600 µM
IC50 (K562 cells [3]): 851 µM
IC50 (K562 cells [3]; as in Figure 7B legend): ~1000 µM
Normalized ATP percentage (K562 cells [3]; K562, 10 mM metformin): 35.2%
